Results reported in publication PMC5547389, “Structure-activity relationships and molecular docking studies of chromene and chromene based azo chromophores: A novel series of potent antimicrobial and anticancer agents” (EXCLI Journal, 2017).
≈ marks a conversion by molar mass, not a printed value.

Legend:
Type in all cases: cell-based
[1] = tested on: Pseudomonas aeruginosa (RCMB 010043); experiment: MIC by serial dilution method; conditions: RCMB010043, Gm-ve, read-out: Minimum inhibitory concentration, MIC, P.A
How it was run: (§1)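 Serial dilution gives the MIC, with agar diffusion well screening done beforehand.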

[2] = tested on: Pseudomonas aeruginosa (RCMB 010043); experiment: Well diffusion assay (inhibition zone); conditions: RCMB010043, 5 mg/mL in DMSO, Gm-ve, read-out: Inhibition Zone (IZ) diameter, P.A
How it was run: (§2)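 Agar well diffusion with 10 mm wells, nutrient agar for bacteria and malt extract agar for fungi. Plates were incubated 24-48 h at 37 °C for bacteria or 28 °C for fungi. Inhibition zone diameters were measured in mm, in triplicate.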

[3] = tested on: Candida albicans (RCMB 05036); experiment: MIC by serial dilution method; conditions: RCMB05036, fungi, read-out: Minimum inhibitory concentration, MIC, C.A
How it was run: as §1

[4] = tested on: Candida albicans (RCMB 05036); experiment: Well diffusion assay (inhibition zone); conditions: RCMB05036, 5 mg/mL in DMSO, fungi, read-out: Inhibition Zone (IZ) diameter, C.A
How it was run: as §2

Row | SMILES | MIC [1] [µg/mL] | zone of inhibition at 5000 µg/mL [2] [mm] | MIC [3] [µg/mL] | zone of inhibition at 5000 µg/mL [4] [mm]
1 | N#CC1=C(N)Oc2c(N)cc3ccccc3c2C1c1ccc(Cl)cc1 (stereo not shown) [4b, 3,5-diamino-1-(4-chlorophenyl)-1H-benzo[f]chromene-2-carbonitrile] | 125 (≈ 359 µM) | 13.1 | – | –
2 | N#CC1=C(N)Oc2c(N)cc3ccccc3c2C1c1ccc(F)cc1 (stereo not shown) [4a, 3,5-diamino-1-(4-fluorophenyl)-1H-benzo[f]chromene-2-carbonitrile] | – | – | 125 (≈ 377 µM) | 9.4
